Test results as given in ChEMBL document CHEMBL3400087, “Modulating Acinetobacter baumannii biofilm development with molecules containing 3,4,5-trimethoxy-N,N',N'-trimethylbenzohydrazide moiety” (Bioorg Med Chem Lett, 2015).
Calls of active or inactive are those of the source. The calls are words filed in the database; no cut-off is given here.

Experiments:
Acinetobacter baumannii [1] = experiment: Inhibition of Acinetobacter baumannii AB5711 biofilm formation at 100 uM after 24 hrs by crystal violet staining-based static MBEC biofilm assay; assay type: functional, organism-based
RAW264.7 = experiment: Cytotoxicity against mouse RAW264.7 cells assessed as reduction in cell viability at >200 uM after 24 hrs by trypan blue-staining based microscopic analysis; conditions: raw264.7, 24 h
Acinetobacter baumannii [2] = experiment: Inhibition of Acinetobacter baumannii AB5711 biofilm formation at 200 uM after 24 hrs by crystal violet staining-based static MBEC biofilm assay; assay type: functional, organism-based
Acinetobacter baumannii [3] = experiment: Inhibition of Acinetobacter baumannii AB5711 biofilm formation in 14-French silicone urethral catheter at 200 uM measured after overnight incubation by crystal violet staining-based spectrophotometry; assay type: functional, organism-based
Acinetobacter baumannii [4] = experiment: Inhibition of Acinetobacter baumannii AB5711 biofilm formation assessed as inhibition of cell adherence to surface at 100 uM by crystal violet staining-based modified microtiter biofilm assay; assay type: functional, organism-based

COc1cc(C(=O)NNC(=S)NC(C)(C)C)cc(OC)c1OC
inhibition (Acinetobacter baumannii [1]): inactive
Activity (RAW264.7): Toxic
inhibition (Acinetobacter baumannii [2]): Active
inhibition (Acinetobacter baumannii [3]): Active
inhibition (Acinetobacter baumannii [4]): Active

COc1cc(C(=O)NN2c3ccccc3C(C)(C)C(C)(C)c3ccccc32)cc(OC)c1OC
inhibition (Acinetobacter baumannii [1]): inactive
Activity (RAW264.7): Toxic
inhibition (Acinetobacter baumannii [2]): Active
inhibition (Acinetobacter baumannii [3]): Active
inhibition (Acinetobacter baumannii [4]): Active

COc1cc(C(=O)NNC(=O)c2cccc(Cl)c2)cc(OC)c1OC
inhibition (Acinetobacter baumannii [1]): inactive
Activity (RAW264.7): Toxic
inhibition (Acinetobacter baumannii [2]): Active
inhibition (Acinetobacter baumannii [3]): Active
inhibition (Acinetobacter baumannii [4]): Active

COc1ccccc1C(=O)NNC(=O)c1cc(OC)c(OC)c(OC)c1
inhibition (Acinetobacter baumannii [1]): inactive
Activity (RAW264.7): Toxic
inhibition (Acinetobacter baumannii [2]): Active
inhibition (Acinetobacter baumannii [3]): inactive
inhibition (Acinetobacter baumannii [4]): Active

COc1cc(C(=O)N2N=C(C3CC3)CC2(O)C(F)(F)F)cc(OC)c1OC (stereo not given)
inhibition (Acinetobacter baumannii [1]): inactive
Activity (RAW264.7): Toxic
inhibition (Acinetobacter baumannii [2]): Active
inhibition (Acinetobacter baumannii [3]): Active
inhibition (Acinetobacter baumannii [4]): Active

COc1cc(C(=O)NNC(=O)c2ccc(S(=O)(=O)C3CCC(C)CC3)cc2)cc(OC)c1OC (stereo not given)
inhibition (Acinetobacter baumannii [1]): inactive
Activity (RAW264.7): Toxic
inhibition (Acinetobacter baumannii [2]): Active
inhibition (Acinetobacter baumannii [3]): inactive
inhibition (Acinetobacter baumannii [4]): Active

NNC(=O)c1cc(O)c(O)c(O)c1
inhibition (Acinetobacter baumannii [1]): inactive
Activity (RAW264.7): Toxic
inhibition (Acinetobacter baumannii [2]): Active
inhibition (Acinetobacter baumannii [3]): Active
inhibition (Acinetobacter baumannii [4]): Active

CCNC(=S)NNC(=O)c1cc(OC)c(OC)c(OC)c1
inhibition (Acinetobacter baumannii [1]): inactive
Activity (RAW264.7): Toxic
inhibition (Acinetobacter baumannii [2]): Active
inhibition (Acinetobacter baumannii [3]): Active
inhibition (Acinetobacter baumannii [4]): Active
